Assay results from ChEMBL document CHEMBL3045889 (Pest Manag Sci, 2012).

Tested on: Fusarium graminearum
Assay: Antifungal activity against Fusarium graminearum JT04 assessed as inhibition of mycelial growth
Type: functional, organism-based

COC(=O)Nc1nc2ccccc2[nH]1 [CARBENDAZIM]
MIC: > 200 µg/mL
